This note sets out measurements from paper PMC11077815, “Synthesis and antitumor activity of dolutegravir derivatives bearing 1,2,3-triazole moieties” (BMC Chemistry, 2024).

One may read the IC50 as the concentration needed to halve the response being measured. A low value points to greater potency in that assay.

The test system of data set [1] is A549. As to the kind of experiment: CCK8 cell viability assay, A549. The format is cell-based, Human. The conditions noted are these: for Cell viability (100%): A549, 20 µM, 48 h, CCK8, control = 100%; for IC50: A549, 48 h, CCK8, mean ± SE. The protocol:
At first, CCK8 assay was carried out to evaluate the anti-proliferative activity of dolutegravir-1,2,3-triazole derivatives against different cancer cell lines. The results of cell viability of three lung cancer cell lines A549, PC-9 and H460 in the presence of compounds 9 and 10 are summarized in Table 2. Cells were treated with different compounds at the concentration of 20 µM for 48 h. […] Human lung cancer cell lines A549, PC-9 and H460 were all obtained from ATCC. Cells were cultured in DMEM or RPMI 1640 medium containing 10% FBS and 1% penicillin/streptomycin at 37 °C with a 5% CO2-humidified atmosphere. CCK8 assay was used to measure cell viability. Cells with a density of 1 × 10^4 cells/well were seeded on the 96-well plates. After adhesion, cells were treated with different diluted compounds or vehicle control DMSO and continue cultured for 48 h. Then, CCK8 reagent was added for one hour incubation at 37 °C with 5% of CO2. Absorbance was measured using a microplate spectrophotometer (Thermo) at 450 nm. The ratio of cell viability of control was taken as 100%. […] Then IC50 of the compounds were investigated using the prism statistical software.
(In general: Tetrazolium assays rely on reduction of a dye to a coloured formazan, in cell work by metabolically active cells.)

The subject of data set [2] is HRM (Human Renal Mesangial) cell line. Put plainly: CCK8 cell viability assay, HRM normal cells (toxicity control). The conditions noted are these: for IC50: HRM normal human cells, 48 h, CCK8, mean ± SE. The format is cell-based. The protocol:
Based on these preliminary results, compounds 9c, 9e, 9f, 9i, 9k, 9 L, 9p, 9q, 9t, 9u, 9v, 9w, 10c, 10e which were effective to most of the cell lines were chosen for the measurement of the half-maximal inhibitory concentration (IC50). […] HRM (Human Renal Mesangial) cell line was used as a control to study the toxicity of these compounds against normal human cells.
CCK8 assay was used to measure cell viability. Cells with a density of 1 × 10^4 cells/well were seeded on the 96-well plates. After adhesion, cells were treated with different diluted compounds or vehicle control DMSO and continue cultured for 48 h. Then, CCK8 reagent was added for one hour incubation at 37 °C with 5% of CO2. Absorbance was measured using a microplate spectrophotometer (Thermo) at 450 nm. The ratio of cell viability of control was taken as 100%. […] Then IC50 of the compounds were investigated using the prism statistical software.

For data set [3], the system named is PC-9. Put plainly: LIVE/DEAD staining, PC-9. The conditions noted are these: PC-9, 5, 10 or 20 µM, 24 h. The format is cell-based, Human. The protocol:
LIVE/DEAD staining experiments were carried out to evaluate the anti-proliferative activity of dolutegravir derivatives 9e and 9p against PC-9 and H460 cell lines. The tumor cells were treated with 5 µM, 10 µM or 20 µM of 9e and 9p for 24 h. The live and dead cells were photographed and counted.
PC-9 and H460 cells with a density of 5 × 10^3 cells/well were seeded on the 96-well plates. Then different concentrations (0, 5 µM, 10 µM, 20 µM) of 9e or 9p were treated for 24 h. Cells were then stained with the LIVE/DEAD Assay Kit, observed and photographed using the fluorescent microscope.

Data set [4] deals with LC3. Put plainly: Western blot of LC3 in PC-9 cells. The data set is classed as cell-based, Human. The conditions noted are these: PC-9, 0, 2, 4, 8 µM, 48 h. The source says:
(§1) To determine the role of compounds 9e and 9p on regulating the development of cell proliferation, expressions of key proteins which were involved in cell growth progresses such as autophagy, apoptosis, cell cycle and DNA damage were examined. Ubiquitin like molecule light chain 3 (LC3) is a key marker of autophagy. […] Caspase3, which is one of the key proteins in regulating apoptosis, however, was not changed in tumor cells after treated with 9e or 9p. Cell cycle regulation proteins such as CyclinD, CyclinE or β-catenin were also not affected when PC-9 was treated with 9e or 9p. Further, H2AX variant histone (γ-H2AX), which was responsible for DNA damage, was also not affected when PC-9 were treated with 9e or 9p.
(§2) Protein expression levels were measured by western blot. PC-9 cells were cultured in 12-well plates and different concentrations (0, 2, 4, 8µM) of 9e and 9p were added for 48 h. Proteins were extracted from whole cells using radioimmunoprecipitation assay (RIPA). Buffer containing protease/phosphatase inhibitor cocktail (CST). Sodium dodecyl sulfate (10-15%) polyacrylamide gel electrophoresis and nitrocellulose membranes (Millipore) were used to separate and collect proteins. Antibodies used include, LC3 (3868s, CST), Caspase3 (9662, CST), cyclin D (2922s, CST), cyclin E (20808s, CST), γ-H2AX (9718s, CST), and β-actin (4967s, CST).

The test system of data set [5] is Caspase3. As to the kind of experiment: Western blot of Caspase3 in PC-9 cells. The format is cell-based, Human. The conditions noted are these: PC-9, 0, 2, 4, 8 µM, 48 h.
Description: as §1, §2

Data set [6] relates to CyclinD. As to the kind of experiment: Western blot of CyclinD in PC-9 cells. The format is cell-based, Human. The conditions noted are these: PC-9, 0, 2, 4, 8 µM, 48 h.
Description: as §1, §2
On the technique in general: A western blot detects proteins with antibodies after separation by electrophoresis.

The subject of data set [7] is CyclinE. As to the kind of experiment: Western blot of CyclinE in PC-9 cells. The format is cell-based, Human. The conditions noted are these: PC-9, 0, 2, 4, 8 µM, 48 h.
Description: as §1, §2

A value given as a limit tells only on which side of the number the result lay.

For `COc1c2n(cc(C(=O)Nc3cccc(-c4cn(-c5cccc([N+](=O)[O-])c5C)nn4)c3)c1=O)C[C@@H]1OCC[C@@H](C)N1C2=O` [Compound 9e], in data set [1], the “Cell viability (100%)” value amounted to 9.14% and the IC50 worked out at 8.72 ± 0.11 µM. For the same compound, in data set [2] (HRM cells), the “toxicity against normal cells” value is “low toxicity against normal cells”. Also, the IC50 in data set [2] is > 50 µM. In data set [3], the “number of live cells” value is “decreased significantly in a dose dependent manner” and the “ratio of dead/live cells” value was “increased significantly with the increase of concentration”. Moreover, the “expression of LC3” value in data set [4] is recorded as “significantly increased”. In data set [5], the Caspase3 expression entry is given as “not changed”. The CyclinD expression result in data set [6] is recorded as “not affected”. In data set [7], the CyclinE expression result is “not affected”.

With `COc1c2n(cc(C(=O)Nc3cccc(-c4cn(-c5cccc(C(F)(F)F)c5)nn4)c3)c1=O)C[C@@H]1OCC[C@@H](C)N1C2=O` [Compound 9p], in data set [1], the “Cell viability (100%)” value is given as 10.85% and it took 13 ± 0.32 µM to reach half-maximal inhibition (IC50). Further, half-maximal inhibition in data set [2] (IC50) required 35.6 ± 10.8 µM. Moreover, in data set [3], the “number of live cells” value was “decreased with the increase of concentration” and the “ratio of dead/live cells” value was “increased compared with untreated group but not completely in a dose dependent manner”. In addition, the “expression of LC3” value in data set [4] was “significantly increased”. For the same compound, the Caspase3 expression result in data set [5] is “not changed”. In addition, in data set [6], the CyclinD expression entry is on record as “not affected”. The CyclinE expression entry in data set [7] is “not affected”.
